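Test compounds were applied to cells in 96-well plates for 48 hours at 5 doses. GI50: concentration for 50% inhibition of growth.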 Activity calls are given as the source filed them. Rule as the data show it: active = GI50 up to about 1.1 µM and inactive = higher. Residues, ends and D or L forms follow the SMILES beside them. *: point of attachment. X38 = O=C(c1ccc(-c2ccc(Cl)cc2Cl)o1)*
Tests used:
Assay in all cases: DTP human tumour cell line panel, 48 h
[1] = system: OVCAR-4
[2] = system: HL-60
[3] = system: PC-3
[4] = system: Malme-3M
[5] = system: UO-31
[6] = system: MDA-MB-435
[7] = system: TK-10
[8] = system: SF-539
[9] = system: SNB-19
[10] = system: RPMI-8226
[11] = system: SNB-75
[12] = system: NCI-H23
[13] = system: CCRF-CEM
[14] = system: ACHN
[15] = system: DU-145
[16] = system: MDA-N
[17] = system: 786-0
[18] = system: COLO 205
[19] = system: RXF 393
[20] = system: SF-268

SMILES	GI50 [1]	GI50 [2]	GI50 [3]	GI50 [4]	GI50 [5]	GI50 [6]	GI50 [7]	GI50 [8]	GI50 [9]	GI50 [10]	GI50 [11]	GI50 [12]	GI50 [13]	GI50 [14]	GI50 [15]	GI50 [16]	GI50 [17]	GI50 [18]	GI50 [19]	GI50 [20]
O=[N+]([O-])c1cccc2nc3ccccc3c(NCCCn3ccnc3[N+](=O)[O-])c12	0.0104 µM (active)	0.000889 µM (active)	0.000598 µM (active)	0.00023 µM (active)	0.00076 µM (active)	< 0.0001 µM (active)	0.00367 µM (active)	0.00137 µM (active)	0.000366 µM (active)	< 0.0001 µM (active)	0.0137 µM (active)	0.0003 µM (active)	0.00574 µM (active)	0.000161 µM (active)	< 0.0001 µM (active)	< 0.0001 µM (active)	0.000175 µM (active)	0.000109 µM (active)	0.000139 µM (active)	0.000819 µM (active)
O=C(Nc1ccc(-c2cn3ccccc3n2)cc1)c1cc(Br)ccc1O	> 100 µM (inactive)	> 100 µM (inactive)	> 100 µM (inactive)	> 100 µM (inactive)		> 100 µM (inactive)	> 100 µM (inactive)	> 100 µM (inactive)	> 100 µM (inactive)	> 100 µM (inactive)	> 100 µM (inactive)	> 100 µM (inactive)	> 100 µM (inactive)	> 100 µM (inactive)	> 100 µM (inactive)	> 100 µM (inactive)	> 100 µM (inactive)	> 100 µM (inactive)	> 100 µM (inactive)	> 100 µM (inactive)
CCOC(=O)c1ccc(-c2cccs2)n1C	79.8 µM (inactive)	> 69.5 µM (inactive)	> 100 µM (inactive)	> 67.1 µM (inactive)	43.7 µM (inactive)	> 92.5 µM (inactive)	> 100 µM (inactive)	> 100 µM (inactive)	> 100 µM (inactive)	84.5 µM (inactive)	> 100 µM (inactive)	> 86.7 µM (inactive)	71.8 µM (inactive)	> 100 µM (inactive)	> 100 µM (inactive)	> 96.2 µM (inactive)	> 100 µM (inactive)	> 100 µM (inactive)	> 66.5 µM (inactive)	> 100 µM (inactive)
O=C(/C=C/c1ccco1)CC(=O)/C=C/c1ccco1	15.5 µM (inactive)	5.55 µM (inactive)	> 10 µM (inactive)	13 µM (inactive)	13.3 µM (inactive)	10.1 µM (inactive)	26.3 µM (inactive)	13.9 µM (inactive)	15.5 µM (inactive)	8.38 µM (inactive)	18 µM (inactive)	12.2 µM (inactive)	6.17 µM (inactive)	14.8 µM (inactive)	> 10 µM (inactive)	8.04 µM (inactive)	12.7 µM (inactive)	> 10 µM (inactive)	4.58 µM (inactive)	> 10 µM (inactive)
O=c1c2nn3c(=O)n(-c4ccccc4)c(=O)c3nn2c(=O)n1-c1ccccc1	> 100 µM (inactive)	> 100 µM (inactive)	> 100 µM (inactive)	> 100 µM (inactive)	> 100 µM (inactive)	> 100 µM (inactive)	> 100 µM (inactive)	> 100 µM (inactive)	> 100 µM (inactive)	> 100 µM (inactive)	81.3 µM (inactive)	> 100 µM (inactive)	56 µM (inactive)	> 100 µM (inactive)	> 100 µM (inactive)	> 100 µM (inactive)	> 100 µM (inactive)	> 100 µM (inactive)	> 100 µM (inactive)	> 100 µM (inactive)
C=C1C(=O)O[C@H]2C1C[C@@H](O)/C(C)=C/CC[C@@]1(C)O[C@H]21 (some centres undefined)	11.4 µM (inactive)	2.87 µM (inactive)	23 µM (inactive)	4.08 µM (inactive)	18.7 µM (inactive)	8.2 µM (inactive)	12 µM (inactive)	19.9 µM (inactive)	52 µM (inactive)	4.76 µM (inactive)	16.4 µM (inactive)	13.6 µM (inactive)	3.17 µM (inactive)	9.27 µM (inactive)	20.7 µM (inactive)	10.3 µM (inactive)	10.5 µM (inactive)	4.93 µM (inactive)	7.62 µM (inactive)	39 µM (inactive)
COc1ccc(C2=CN3CCC[C@H]3C=C2c2cc(O)c(OC)c(OC)c2)cc1OC	0.00286 µM (active)	0.00351 µM (active)	0.0124 µM (active)	0.00421 µM (active)	0.0108 µM (active)	0.00284 µM (active)	0.00859 µM (active)	0.00505 µM (active)	0.00309 µM (active)	0.00519 µM (active)	0.00227 µM (active)	0.00378 µM (active)	0.0033 µM (active)	0.00302 µM (active)	0.00398 µM (active)	0.00337 µM (active)	0.00371 µM (active)	0.0115 µM (active)	0.00424 µM (active)	0.00454 µM (active)
Cc1cc(CC(O)(C(F)(F)F)C(F)(F)F)cc(CC(O)(C(F)(F)F)C(F)(F)F)n1	3.47 µM (inactive)	3.02 µM (inactive)	2.9 µM (inactive)	1.56 µM (inactive)	2.05 µM (inactive)	2.88 µM (inactive)	4.7 µM (inactive)	3.43 µM (inactive)	> 100 µM (inactive)	1.61 µM (inactive)	2.31 µM (inactive)	2.51 µM (inactive)	3.21 µM (inactive)	2.79 µM (inactive)	2.74 µM (inactive)	3.88 µM (inactive)	2.29 µM (inactive)	1.87 µM (inactive)	4.24 µM (inactive)	2.7 µM (inactive)
Cc1ccnc2sc3ccccc3c(=O)c12	> 100 µM (inactive)	30 µM (inactive)	35.6 µM (inactive)	51.9 µM (inactive)	25.4 µM (inactive)	52.6 µM (inactive)	23.8 µM (inactive)	33.4 µM (inactive)	49.8 µM (inactive)	36.7 µM (inactive)	22.4 µM (inactive)	59 µM (inactive)	40.9 µM (inactive)	35.1 µM (inactive)	84.3 µM (inactive)	39.4 µM (inactive)	65 µM (inactive)	45.7 µM (inactive)	23.9 µM (inactive)	32.7 µM (inactive)
S=C1Cc2c(-c3ccc(Cl)cc3)cc(-c3ccccc3)nc2-c2ccccc2N1	3.08 µM (inactive)	30.6 µM (inactive)	15.2 µM (inactive)	13.8 µM (inactive)	14.8 µM (inactive)	15 µM (inactive)	12.3 µM (inactive)	4.01 µM (inactive)	4.5 µM (inactive)	37.3 µM (inactive)	3.76 µM (inactive)	11.6 µM (inactive)	26.2 µM (inactive)	7.82 µM (inactive)	22 µM (inactive)	14 µM (inactive)	5.97 µM (inactive)	16 µM (inactive)	6.56 µM (inactive)	14.3 µM (inactive)
CCOC(=O)Cn1nnc2cc(Nc3nc4ccccc4nc3C(=O)OCC)ccc21	> 100 µM (inactive)	> 100 µM (inactive)	> 100 µM (inactive)	> 100 µM (inactive)	2 µM (inactive)	> 100 µM (inactive)	22.5 µM (inactive)	17.3 µM (inactive)	29 µM (inactive)	> 100 µM (inactive)	4.21 µM (inactive)	> 100 µM (inactive)	> 100 µM (inactive)	> 100 µM (inactive)	> 100 µM (inactive)	> 100 µM (inactive)	67 µM (inactive)	> 100 µM (inactive)	18.6 µM (inactive)	22.5 µM (inactive)
O=C1c2cc3ccccc3cc2C2(c3ccc(Cl)cc3)N[C@H]3CCCC[C@@H]3N12 (some centres undefined)	6.34 µM (inactive)	13.6 µM (inactive)	14.9 µM (inactive)	15.1 µM (inactive)	18.3 µM (inactive)	21.9 µM (inactive)	11.7 µM (inactive)	10.1 µM (inactive)	13.7 µM (inactive)	18.4 µM (inactive)	16.5 µM (inactive)	14.6 µM (inactive)	48 µM (inactive)	15.2 µM (inactive)	17.9 µM (inactive)	18.1 µM (inactive)	11.2 µM (inactive)	15.3 µM (inactive)	9.89 µM (inactive)	16.5 µM (inactive)
CC(=O)c1ccc2c(c1)C(=O)c1sc(C(C)=O)cc1C2=O	1.73 µM (inactive)	0.24 µM (active)	1.82 µM (inactive)	0.526 µM (active)	1.07 µM (active)	1.18 µM (inactive)	1.76 µM (inactive)	0.804 µM (active)	0.748 µM (active)	1.74 µM (inactive)	1.67 µM (inactive)	1.09 µM (active)	0.403 µM (active)	0.736 µM (active)	1.01 µM (active)	0.796 µM (active)	1.68 µM (inactive)	1.69 µM (inactive)	1.3 µM (inactive)	1.17 µM (inactive)
COC(=O)C(CC(C)C)NC(=O)C(Cc1ccccc1)NC(=O)C1CCCN1C(=O)C(CO)NC(=O)c1ccc(-c2ccc(Cl)cc2Cl)o1 (centres undefined) (X38-SPFL-OMe; configuration not given here)	31.2 µM (inactive)	19.5 µM (inactive)	31.6 µM (inactive)	42.1 µM (inactive)	23.9 µM (inactive)	28.3 µM (inactive)	24.8 µM (inactive)	24.3 µM (inactive)	21.9 µM (inactive)	17.1 µM (inactive)	25.7 µM (inactive)	27.7 µM (inactive)	36.8 µM (inactive)	26.5 µM (inactive)	38 µM (inactive)	35.5 µM (inactive)	25.1 µM (inactive)	16 µM (inactive)	17.8 µM (inactive)	40.3 µM (inactive)

From ChEMBL document CHEMBL1201862, “PubChem BioAssay data set” (2004)
